This note sets out measurements from PubChem BioAssay (NCI).

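Tested at 5 concentrations; 48 h exposure; 96-well plates; endpoints linearly interpolated, else capped at highest concentration. GI50 = concentration required for 50% inhibition of growth. TGI: concentration producing complete growth inhibition.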

Test systems include HCT-15 colon; HOP-62 NSCLC; K-562 leukemia; MDA-MB-231 breast; OVCAR-3 ovarian; OVCAR-5 ovarian; RXF 393 renal; SK-MEL-5 melanoma; U251 CNS; UACC-257 melanoma.
Assay in all cases: NCI-60 cell line screen, 48 h

For the compound `COc1cc(-c2cc(/C=C3\C(=O)Nc4ccccc43)[nH]n2)cc(OC)c1OC`, the GI50 is 2.57 µM in the assay with HCT-15 colon; 3.2 µM in the assay on HOP-62 NSCLC; 2.65 µM in the assay with K-562 leukemia; 4.07 µM in the assay on MDA-MB-231 breast; 3.21 µM in the assay on OVCAR-3 ovarian; 5.16 µM with OVCAR-5 ovarian. The GI50 with RXF 393 renal was 8.83 µM; with SK-MEL-5 melanoma, 1.57 µM; in the assay with U251 CNS it was 3.63 µM; with UACC-257 melanoma, 2.37 µM. In addition, the TGI in the assay with HCT-15 colon was 10.1 µM; with HOP-62 NSCLC it was 14.9 µM; with K-562 leukemia, 11.5 µM; with MDA-MB-231 breast, 27.7 µM; with OVCAR-3 ovarian it was 14.5 µM; in the assay on OVCAR-5 ovarian it was 27.9 µM. Besides, the TGI in the assay with RXF 393 renal was 22.5 µM; with SK-MEL-5 melanoma, 3.45 µM; in the assay with U251 CNS, 19.6 µM; in the assay with UACC-257 melanoma, 6.56 µM.
Take `Cc1cc(C)c2c(SCc3ccc(Cl)cc3Cl)nc(N)nc2n1`: the TGI was > 100 µM in the assay with HCT-15 colon; > 100 µM in the assay on HOP-62 NSCLC; 97.1 µM in the assay on K-562 leukemia; > 100 µM in the assay with MDA-MB-231 breast; 76.2 µM with OVCAR-3 ovarian; > 100 µM in the assay on OVCAR-5 ovarian. The TGI in the assay with RXF 393 renal was > 100 µM; in the assay with SK-MEL-5 melanoma it was > 100 µM; in the assay with U251 CNS it was > 100 µM; in the assay with UACC-257 melanoma, 38.2 µM.
For `COc1ccc(CC(NC(=O)[C@H](C)NC(=O)CN2CCOCC2)C(=O)N[C@@H](Cc2ccccc2)C(=O)[C@@]2(C)CO2)cc1` (stereo partly drawn), the GI50 was 5.64 µM with HCT-15 colon; 0.191 µM in the assay with HOP-62 NSCLC; 0.268 µM in the assay with K-562 leukemia; 0.24 µM with MDA-MB-231 breast; 0.198 µM in the assay on OVCAR-3 ovarian; 0.272 µM with OVCAR-5 ovarian. The GI50 is 0.237 µM with RXF 393 renal, 0.177 µM with SK-MEL-5 melanoma, 0.271 µM with U251 CNS and 0.296 µM in the assay with UACC-257 melanoma. In addition, the TGI in the assay with HCT-15 colon was 76.3 µM; in the assay with HOP-62 NSCLC it was 0.453 µM; in the assay on MDA-MB-231 breast it was 1.1 µM; in the assay on OVCAR-3 ovarian it was 0.421 µM; with OVCAR-5 ovarian it was 1.19 µM; in the assay on RXF 393 renal it was 0.658 µM. For the same compound, the TGI in the assay with SK-MEL-5 melanoma turned out to be 0.379 µM; in the assay with U251 CNS, 1.07 µM.
On to `C1=C(c2ccccc2)SC=C(c2ccccc2)S1`, for which the TGI was > 100 µM in the assay with HCT-15 colon; > 100 µM with HOP-62 NSCLC; 89.3 µM with K-562 leukemia; > 100 µM in the assay on MDA-MB-231 breast; > 100 µM in the assay with OVCAR-3 ovarian; > 100 µM with OVCAR-5 ovarian. Also, the TGI in the assay on RXF 393 renal was 48.1 µM; in the assay on SK-MEL-5 melanoma, 77.9 µM; with U251 CNS, > 100 µM; in the assay with UACC-257 melanoma, > 100 µM.
As to `C=C1CC2(CCCC3(CC(=C)C(=O)O3)C2(C)C)OC1=O` (stereo not drawn), the TGI with HCT-15 colon came to 1.99 µM; in the assay on HOP-62 NSCLC, 30.8 µM; in the assay on K-562 leukemia it was 13.7 µM; in the assay with MDA-MB-231 breast, 17.7 µM; with OVCAR-3 ovarian it was 6.78 µM; with OVCAR-5 ovarian, 3.33 µM. In addition, the TGI in the assay on RXF 393 renal is 31 µM; in the assay with SK-MEL-5 melanoma, 31.8 µM; in the assay on U251 CNS, 4.56 µM; in the assay on UACC-257 melanoma, 5.78 µM.
On to `C/C1=C/C(=O)O[C@@H]2C[C@@H](CC[C@H](C)/C=C\C=C\CC1)O[C@@](OCCc1ccccc1)([C@@H]1CSC(=O)N1)C2`, for which the GI50 was 0.09 µM in the assay on HCT-15 colon; 0.0777 µM in the assay on HOP-62 NSCLC; 0.954 µM with K-562 leukemia; 0.0949 µM in the assay with MDA-MB-231 breast; 0.17 µM in the assay with OVCAR-3 ovarian; 0.0554 µM with OVCAR-5 ovarian. Moreover, the GI50 in the assay with RXF 393 renal was 0.0363 µM; in the assay with SK-MEL-5 melanoma, 0.226 µM; with U251 CNS, 0.189 µM; in the assay on UACC-257 melanoma it was 0.175 µM. For the same compound, the TGI was > 17.5 µM in the assay on HCT-15 colon; > 17.5 µM in the assay on HOP-62 NSCLC; > 17.5 µM with K-562 leukemia; > 17.5 µM with MDA-MB-231 breast; 0.607 µM in the assay on OVCAR-3 ovarian; > 17.5 µM with OVCAR-5 ovarian. Also, the TGI in the assay with RXF 393 renal is 0.158 µM; in the assay with SK-MEL-5 melanoma it was > 6.42 µM; in the assay on U251 CNS it was > 17.5 µM; in the assay on UACC-257 melanoma, 17.3 µM.
Take `CC(C)(C)[Si](C)(C)OCC1C=CC(n2cnc3c(N)ncnc32)O1` (stereo not drawn): the TGI was > 100 µM in the assay with HCT-15 colon; > 100 µM with HOP-62 NSCLC; 54 µM with K-562 leukemia; > 73.6 µM in the assay with MDA-MB-231 breast; > 67.9 µM in the assay with OVCAR-3 ovarian; > 100 µM in the assay on OVCAR-5 ovarian. Also, the TGI amounted to 73 µM in the assay on RXF 393 renal, 34.1 µM in the assay on SK-MEL-5 melanoma, 72.3 µM with U251 CNS and 98.4 µM in the assay on UACC-257 melanoma.
For `O=C(Nc1cccc(O)c1)c1cccc(NC2=C(Cl)C(=O)N(Cc3ccccc3)C2=O)c1`, the GI50 in the assay on HCT-15 colon was 16.2 µM; in the assay on HOP-62 NSCLC, 19.2 µM; with K-562 leukemia, 1.51 µM; in the assay on MDA-MB-231 breast, 11.9 µM; in the assay with OVCAR-3 ovarian, 8.16 µM; in the assay with OVCAR-5 ovarian it was 12.1 µM. The GI50 with RXF 393 renal was 14.8 µM; in the assay on SK-MEL-5 melanoma, 6.09 µM; in the assay on U251 CNS, 13.7 µM; in the assay on UACC-257 melanoma, 14 µM. Moreover, the TGI with HCT-15 colon is 30.1 µM; in the assay with HOP-62 NSCLC it was 33.6 µM; in the assay with K-562 leukemia it was 28.4 µM; with MDA-MB-231 breast, 31.9 µM; with OVCAR-3 ovarian, 23 µM; in the assay on OVCAR-5 ovarian, 28 µM. Besides, the TGI in the assay on RXF 393 renal was determined as 42.3 µM; in the assay with SK-MEL-5 melanoma, 20.1 µM; in the assay on U251 CNS, 26.6 µM; with UACC-257 melanoma it was 31.8 µM.
For `C(=C\c1nccc2c1[nH]c1ccccc12)/c1ccccc1`, the GI50 was 2.43 µM in the assay on HCT-15 colon; 2.97 µM with HOP-62 NSCLC; 2.25 µM with K-562 leukemia; 1.76 µM in the assay with MDA-MB-231 breast; 2.31 µM with OVCAR-3 ovarian; 3.04 µM in the assay on OVCAR-5 ovarian. Moreover, the GI50 is 2.06 µM with RXF 393 renal, 2.27 µM with SK-MEL-5 melanoma, 3.26 µM in the assay on U251 CNS and 17.8 µM in the assay with UACC-257 melanoma. The TGI is 17.5 µM in the assay with HCT-15 colon; 22.3 µM in the assay on HOP-62 NSCLC; 37.2 µM in the assay on K-562 leukemia; 8.02 µM with MDA-MB-231 breast; 6.65 µM with OVCAR-3 ovarian; > 100 µM in the assay with OVCAR-5 ovarian. In addition, the TGI with RXF 393 renal was found to be 4.66 µM; in the assay with SK-MEL-5 melanoma, 8.05 µM; with U251 CNS, 13.7 µM; with UACC-257 melanoma it was 76.7 µM.
